# Reference: US20220133846A1, “NOVEL ANTIMICROBIAL COMPOUND AND USES THEREOF” (priority 2019, published 2022)
# Where “and” joins values, the source holds several entries; their conditions need not be identical. Identical values can stand only once. Entries after “also recorded” stand apart in the source; their conditions may differ. Like-named read-outs stand apart in the source and are kept apart here.
# Experiments:
# [1] = test system: S. aureus or MRSA; assay: Bacteriolytic activity (time-kill, OD600); type: cell-based; conditions: twice the MIC, mid-exponential growth, over 20 hours
# [2] = test system: S. aureus; assay: Thermal and chemical (pH) short-term stability, antibacterial activity remaining; type: physicochemical; conditions: 4 to 60° C. for 18 hours, and 37° C. at pH 3.0-9.0
# Method: Samples were clarified by centrifugation (16,000×g for 5 min) and soluble fractions were tested for antibacterial activity (against S. aureus) and examined by analytical HPLC.
# [3] = Stability in whole blood and plasma (zone of inhibition, diffusion method); type: in vitro ADME, mouse; conditions: for Whole blood ZOI: 400 μg/mL added to mouse whole blood; for Plasma fraction ZOI: plasma from treated whole blood
# Method: The antimicrobial activity remaining in blood was measured by the diffusion method and expressed as the zone of inhibition (ZOI), proportional to the amount of activity remaining in blood (Table 11). Zone of inhibition (ZOI) is a zone of bacteria free agar plate after depositing 2 μL of a tested sample. In parallel, CMB001 treated blood was centrifuged to remove blood cells and the level of CMB001 was tested in the supernatant (plasma).
# [4] = test system: Enterococcus faecalis strain NBRC 100480
# [5] = test system: A. baumannii (CH-46); assay: Frequency of resistance (FoR) in vitro; type: cell-based
# [6] = test system: Acinetobacter baumannii
# [7] = test system: Staphylococcus haemolyticus strain JCM 2416
# [8] = in vivo; conditions: male, CD1, mouse, iv, 30 mg/kg; for clearance / MRT / Vd / half-life: blood; for clearance: CL/CL_F; for clearance / MRT / Vd: IV 30 mg/kg; for Vd: Vdss; for half-life: t1/2, IV 30 mg/kg
# [9] = test system: J774A mouse BALB/c cells; assay: Toxicity to mammalian cells (cell viability); conditions: up to 1,500 μg/mL, 24 hours
# [10] = test system: S. aureus NRS 384 (USA300-0114); assay: Murine neutropenic thigh infection model; type: in vivo, mice
# [11] = test system: S. aureus (ATCC #29213); type: cell-based
# [12] = IV 30 mg/kg; for AUC % Back Extrapolation to C0 / AUC % Extrapolation to infinity / tlast: blood; for Mean Concentration in blood: male CD1 mice
# [13] = Stability in human serum or plasma (MIC after incubation); type: in vitro ADME
# Method: Stability studies were also performed in the presence of plasma or serum, or in whole blood.
# [14] = test system: MDR S. aureus (CH-11); assay: Frequency of resistance (FoR) in vitro; type: cell-based
# [15] = 1 mg/mL solution, pH 7.0, 10 minutes, centrifugation
# [16] = test system: Staphylococcus genus clinical strain CH-16 (16S ID n/a); assay: microbe, parasite or virus in culture; type: cell-based; conditions: clinical strain CH-16, drug resistance Y
# [17] = test system: Staphylococcus haemolyticus strain JCM 2416; assay: microbe, parasite or virus in culture; conditions: JCM2416
# [18] = test system: Staphylococcus aureus strain NBRC 100910; assay: MIC against clinical isolates (Christiana Hospital); type: cell-based
# [19] = individual animals 1-3, 30 mg/kg
smiles,measurement,setting,value
"C=C(NC(=O)[C@@H](NC(=O)[C@H](Cc1c[nH]cn1)NC(=O)[C@@H]1CS[C@@H](C)[C@H]2NC(=O)[C@H](C)NC(=O)[C@H](NC(=O)[C@H](CCC(N)=O)NC(=O)[C@@H](NC(=O)[C@H](Cc3ccccc3)NC(=O)[C@@H]3CS[C@@H](C)[C@@H](NC(=O)[C@@H](NC(=O)[C@@H]4CS[C@@H](C)[C@@H](NC(=O)[C@@H]5CSC[C@@H](NC(=O)[C@H](CCCCN)NC(=O)[C@@H](N)Cc6c[nH]c7ccccc67)C(=O)N[C@@H](CCC(N)=O)C(=O)NC(=C)C(=O)N[C@@H](Cc6ccccc6)C(=O)N5)C(=O)N5CCC[C@H]5C(=O)NCC(=O)N4)C(C)C)C(=O)NCC(=O)N[C@@H](C(C)C)C(=O)N[C@@H](CC(C)C)C(=O)N[C@@H](CCC(N)=O)C(=O)N/C(=C\C)C(=O)N3)[C@@H](C)CC)[C@H](C)SC[C@H](NC2=O)C(=O)N[C@@H](CC(N)=O)C(=O)N1)[C@@H](C)CC)C(=O)N[C@@H](CCCCN)C(=O)O [CMB001, WKAQX1FAX3PGAVX3GVLQX2AFIQX3AX3ANAHIX1K (SEQ ID NO: 1)]","Bacteriolytic activity, change of OD600",[1],marked decrease of OD600
same,Antibacterial activity (MIC) and chemical integrity after incubation,[2],retained its full antibacterial activity (MIC) and chemical integrity
same,Whole blood ZOI,[3]; 10 minutes,10 mm
same,Whole blood ZOI,[3]; 60 minutes,9 mm
same,Whole blood ZOI,[3]; 120 minutes,8 mm
same,Whole blood ZOI,[3]; 180 minutes,8 mm
same,Whole blood ZOI,[3]; 240 minutes,8 mm
same,Adsorption onto blood cells,"[3]; mouse blood, 400 μg/mL",not adsorbed onto blood cells
same,Activity in whole blood,"[3]; mouse blood, 400 μg/mL, 0-4 hours",retains full activity in whole blood
same,Plasma fraction ZOI,[3]; 10 minutes,11 mm
same,Plasma fraction ZOI,[3]; 60 minutes,9 mm
same,Plasma fraction ZOI,[3]; 120 minutes,8 mm
same,Plasma fraction ZOI,[3]; 180 minutes,8 mm
same,Plasma fraction ZOI,[3]; 240 minutes,7 mm
same,Spiked plasma control ZOI,"[3]; plasma spiked with CMB001, 10 minutes",9 mm
same,Spiked plasma control ZOI,"[3]; plasma spiked with CMB001, 60 minutes",11 mm
same,Spiked plasma control ZOI,"[3]; plasma spiked with CMB001, 120 minutes",11 mm
same,Spiked plasma control ZOI,"[3]; plasma spiked with CMB001, 180 minutes",11 mm
same,Spiked plasma control ZOI,"[3]; plasma spiked with CMB001, 240 minutes",10 mm
same,MIC90,[4],12.5 µg/mL
same,MIC range,[4],6.2 to 12.5 µg/mL
same,Frequency of resistance (FoR),[5]; 2X MIC,1.1 × 10^−7
same,Frequency of resistance (FoR),[5]; 3X MIC,2.9 × 10^−9
same,Frequency of resistance (FoR),[5]; 5X MIC,<1 × 10^−11
same,Frequency of resistance (FoR),[5]; 10X MIC,<1 × 10^−11
same,MIC range,[6],3.4 to 27.7 µg/mL
same,MIC,[7],6.25 µg/mL
same,clearance,[8]; Mean/Median,170 mL/min/kg
same,clearance,[8]; individual animals 1-2,166 mL/min/kg
same,MRT,[8]; Mean/Median,40.2 min
same,MRT,[8]; individual animals 1-2,42.6 min
same,Vd,[8]; Mean/Median,6.8 L/kg
same,Vd,[8]; individual animals 1-2,7 L/kg
same,half-life,[8]; Mean/Median,32.4 ± 9 min
same,half-life,[8]; individual animals 1-2,38.4 min
same,level at 0.08 h,[8]; whole blood,4770 ng/mL
same,level at 0.25 h,[8]; whole blood,2450 ng/mL
same,level at 0.5 h,[8]; whole blood,1280 ng/mL
same,level at 1 h,[8]; whole blood,916 ng/mL
same,level at time molar at 0.08 h,[8]; whole blood,1420 nM
same,level at time molar at 0.25 h,[8]; whole blood,733 nM
same,level at time molar at 0.5 h,[8]; whole blood,383 nM
same,level at time molar at 1 h,[8]; whole blood,274 nM
same,Cell viability,[9],did not reduce cell viability
same,Bacterial burden compared to vehicle control,[10]; 0.5 to 10 mg/kg IV,dose dependent reduction of bacterial burden; also recorded: dose-dependent reduction of S. aureus in the thigh
same,Thigh burden compared to vehicle-treated group,"[10]; 5 to 30 mg/kg IV at 1, 8 and 15 hours post-infection",Significant reduction of thigh burden
same,Survival to end of study,"[10]; 5 to 30 mg/kg IV, 25 h post-infection",Most CMB001-treated animals survived until the end of the study
same,Thigh burden relative to pre-treatment levels,"[10]; all doses, 5 to 30 mg/kg IV",reduced below pre-treatment levels
same,Frequency of resistance (FoR),[11]; 2X MIC,1.3 × 10^−8
same,Frequency of resistance (FoR),[11]; 3X MIC,2.2 × 10^−9
same,Frequency of resistance (FoR),[11]; 4X MIC,2.6 × 10^−9
same,Frequency of resistance (FoR),[11]; 5X MIC,3.7 × 10^−10
same,Frequency of resistance (FoR),[11]; 10X MIC,<3.7 × 10^−10
same,Time at detectable levels in blood,[12]; LLOQ 500 ng/mL,at least 60 minutes
same,AUC % Back Extrapolation to C0,[12]; Mean/Median,16%
same,AUC % Extrapolation to infinity,[12]; Mean/Median,29%
same,tlast,[12]; Mean/Median,1.00 h
same,tlast,[12]; individual animals 1-3,1.00 h
same,AUC % Back Extrapolation to C0,[12]; [19],23% and 12% and 13%
same,AUC % Extrapolation to infinity,[12]; [19],26% and 22% and 41%
same,Mean Concentration in blood,"[12]; 2.00 hours, LLOQ 500 ng/mL",BLQ*
same,Mean Concentration in blood,"[12]; 4.00 hours, LLOQ 500 ng/mL",BLQ
same,Mean Concentration in blood,"[12]; 8.00 hours, LLOQ 500 ng/mL",BLQ
same,Mean Concentration in blood,"[12]; 24.00 hours, LLOQ 500 ng/mL",BLQ
same,Antibacterial activity after incubation in human serum or plasma,[13]; 8-hour incubation at 37° C.,retained full antibacterial activity
same,Antibacterial activity after incubation in human serum or plasma,[13]; 24-hour incubation,somewhat less active
same,Frequency of resistance (FoR),[14]; 2X MIC,3.5 × 10^−9
same,Frequency of resistance (FoR),[14]; 3X MIC,1.8 × 10^−9
same,Frequency of resistance (FoR),[14]; 4X MIC,2.9 × 10^−8
same,Frequency of resistance (FoR),[14]; 5X MIC,5.3 × 10^−10
same,Frequency of resistance (FoR),[14]; 10X MIC,<3.2 × 10^−10
same,Solubility relative to initial concentration,[15],> 96%
COc1cccc(OC)c1C(=O)N[C@@H]1C(=O)N2[C@@H]1SC(C)(C)[C@@H]2C(=O)O [Methicillin],MIC,[16],64 µg/mL
same,MIC,[17],8 µg/mL
same,MIC,"[18]; NBRC100910, clinical strain CH-01, drug resistance N",1 µg/mL
same,MIC,"[18]; NBRC100910, clinical strain CH-02, drug resistance N",1 µg/mL
same,MIC,"[18]; NBRC100910, clinical strain CH-03, drug resistance N",1 µg/mL
same,MIC,"[18]; NBRC100910, clinical strain CH-04, drug resistance N",2 µg/mL
same,MIC,"[18]; NBRC100910, clinical strain CH-05, drug resistance N",1 µg/mL
same,MIC,"[18]; NBRC100910, clinical strain CH-06, drug resistance N",1 µg/mL
same,MIC,"[18]; NBRC100910, clinical strain CH-07, drug resistance N",1 µg/mL
same,MIC,"[18]; NBRC100910, clinical strain CH-08, drug resistance N",1 µg/mL
same,MIC,"[18]; NBRC100910, clinical strain CH-09, drug resistance N",8 µg/mL
same,MIC,"[18]; NBRC100910, clinical strain CH-10, drug resistance N",1 µg/mL
same,MIC,"[18]; NBRC100910, clinical strain CH-11, drug resistance Y",32 µg/mL
same,MIC,"[18]; NBRC100910, clinical strain CH-12, drug resistance Y",16 µg/mL
same,MIC,"[18]; NBRC100910, clinical strain CH-13, drug resistance Y",> 64 µg/mL
same,MIC,"[18]; NBRC100910, clinical strain CH-14, drug resistance Y",> 64 µg/mL
same,MIC,"[18]; NBRC100910, clinical strain CH-15, drug resistance Y",> 64 µg/mL
same,MIC,"[18]; NBRC100910, clinical strain CH-17, drug resistance Y",16 µg/mL
same,MIC,"[18]; NBRC100910, clinical strain CH-20, drug resistance Y",4 µg/mL
same,Frequency of resistance (FoR),[11]; 2X MIC,<3.72 × 10^−10
same,Frequency of resistance (FoR),[11]; 3X MIC,<3.72 × 10^−10
same,Frequency of resistance (FoR),[11]; 4X MIC,<3.72 × 10^−10
same,Frequency of resistance (FoR),[11]; 5X MIC,<3.72 × 10^−10
same,Frequency of resistance (FoR),[11]; 10X MIC,<3.72 × 10^−10
same,Frequency of resistance (FoR),[14]; 2X MIC,resistant
same,Frequency of resistance (FoR),[14]; 3X MIC,resistant
same,Frequency of resistance (FoR),[14]; 4X MIC,resistant
same,Frequency of resistance (FoR),[14]; 5X MIC,resistant
same,Frequency of resistance (FoR),[14]; 10X MIC,resistant
